Laboratory results: patent publication US9572786B2, “Use of capsiate or dihydrocapsidate” (Catholic University Industry Academy Cooperation Foundation, priority 2007, dated 2017)

What was measured:
[1] = test system: MMP-9; test: UV-induced MMP-9 mRNA expression, RT-PCR; assay type: cell-based, human; conditions: HaCaT cells; 10, 25, 50 μM; UV 100 J/m^2; 36 hours
Experimental: The inhibition effect of capsiate on the expression of MMP-2 and MMP-9, which induce angiogenesis, was investigated through measurement of mRNA expression by RT-PCR and protein expression and activity measurement by zymography.
In order to investigate the inhibition effect of capsiate on MMP expression, 5×10^5 HaCaT cells were placed on a 60 mm Petri dish and cultured for 24 hours in DMEM containing 10% FBS. Subsequently, the cells were cultured for 24 hours in DMEM containing 1% FBS until starvation. Then, after treating with capsiate at different concentrations (10 μM, 25 μM, 50 μM) for 30 minutes, followed by washing 3 times with PBS, UV was irradiated at an intensity of 100 J/m^2. Immediately after the UV irradiation, the cells were washed again with PBS and further cultured for 36 hours in DMEM containing 1% FBS, which was treated with capsiate at the same concentration as in the pre-treatment. The degree of intracellular mRNA expression for MMP-2 and MMP-9 was measured by RT-PCR in the same manner as in Example 3. The degree of MMP expression was compared with that of the non-treated group.

[2] = test system: VE-cadherin; test: Tyrosine phosphorylation of VE-cadherin, Western blotting; assay type: cell-based, human; conditions: HUVEC; 5, 10, 25 μM; 50 ng/mL VEGF
Experimental: Because VEGF is known to induce tyrosine phosphorylation of VE-cadherin and thereby regulate permeability between endothelial cells by making the intercellular contact loose [Esser S. et al., 1998, J. Cell Sci., 111: 1853-1865], the inhibition effect on tyrosine phosphorylation of VE-cadherin was investigated.
3.5×10^5 HUVEC were placed on a 60 mm plate and cultured for 24 hours. After washing twice with M199 medium (Invitrogen, USA), the cells were cultured in M199 medium containing 1% FBS for 6 hours. After treating with capsiate or dihydrocapsiate at different concentrations (5 μM, 10 μM, 25 μM) for 30 minutes, followed by pre-culturing for 30 minutes, the cells were cultured for 6 hours after adding 50 ng/mL VEGF. Proteins were collected from the cells and, after quantitation, subjected to Western blotting using VE-cadherin antibody in order to identify the level of protein expression.

[3] = test system: HUVEC; test: Cell cycle analysis by FACS; assay type: cell-based, human; conditions: 1, 5, 10, 25 μM, 10 ng/mL VEGF, 20 hours
Experimental: In order to identify the mechanism of the inhibition of proliferation of endothelial cells confirmed in Example 9, fluorescence-activated cell sorting (FACS) analysis was carried out on the cells at different phases of cell cycle.
3×10^5 HUVEC were placed on a 60 mm plate and cultured for 24 hours. After washing twice with M199 medium (Invitrogen, USA), the cells were cultured in M199 medium containing 1% FBS for 6 hours. After adding capsiate or dihydrocapsiate at different concentrations (1 μM, 5 μM, 10 μM, 25 μM), followed by pre-culturing for 30 minutes, 10 ng/mL VEGF was added and the cells were cultured for 20 hours. Then, the cells were fixed with ethanol cooled in ice. The fixed cells were dehydrated in PBS containing 2% FBS and 0.1% Tween 20 at 4° C. for 30 minutes. After centrifuge, the cells were lysed in the same buffer solution. After treating with RNase (37° C., 1 hr), followed by staining with propidium iodide, analysis was carried out using a FACS analyzer (FACScan DB PharMingen flow cytometer).

[4] = test system: MMP-2; test: Zymography of secreted MMP-2 after UV; assay type: cell-based, human; conditions: HaCaT culture medium; 10, 25, 50 μM; UV 100 J/m^2; 36 hours
Experimental: Zymography was carried out in order to investigate the decrease of expression and activity of MMP-2 and MMP-9 in protein level.
5×10^5 HaCaT cells were placed on a 60 mm Petri dish and cultured for 24 hours in DMEM containing 10% FBS. Subsequently, the cells were cultured for 24 hours in DMEM containing 1% FBS until starvation. Then, after treating with capsiate at different concentrations (10 μM, 25 μM, 50 μM) for 30 minutes, followed by washing 3 times with PBS, UV was irradiated at an intensity of 100 J/m^2. Immediately after the UV irradiation, the cells were washed again with PBS and further cultured for 36 hours in DMEM containing 1% FBS, which was treated with capsiate at the same concentration as in the pre-treatment. After collecting the culture medium, the activity of MMP-2 and MMP-9 proteins secreted from the cells into the medium was measured. To this end, the mediums obtained from the same number of cells were concentrated to the same volume, and the temperature was maintained at 4° C. in order to avoid the effect on the protein activity.
Thus prepared sample was subjected to electrophoresis at 4° C. using 7.5% acrylamide gel containing gelatin but without sodium dodecyl sulfate (SDS). […]

[5] = test system: TNF-α; test: UV-induced TNF-α mRNA in hairless mouse skin, RT-PCR; assay type: in vivo; conditions: 200 μL of 1 mM topically 1 hour before UV 5 kJ/m^2 once, 6 hours later
Experimental: In order to investigate the effect of capsiate on the production of IL-6 and TNF-α induced in skin tissue during inflammatory response, the inhibition ability of capsiate against the expression of the pro-inflammatory cytokines was evaluated in animal model as follows. Test groups were as follows: non-treated group—treated with acetone only without UV irradiation; test group A—treated with 200 μL of 1 mM capsiate dissolved in acetone without UV irradiation; UV group—treated with acetone and UV; test group B—treated with 200 μL of 1 mM capsiate dissolved in acetone followed by UV irradiation 1 hour later.
To this end, acetone and capsiate were treated prior to UV irradiation. After treating with UV once at an intensity of 5 kJ/m^2, hairless mouse was euthanized 6 hours later. mRNA was extracted from the mouse tissue obtained by skin biopsy and RT-PCR was carried out as follows. For RNA extraction from the tissue, each mouse tissue obtained by skin biopsy was quickly frozen in liquid nitrogen and ground finely using a mortar. RNA was extracted from the mouse tissue using Trizol (Invitrogen, USA), and PCR (PTC-225 Peltier thermal cycler, MJ Research, USA) was carried out using it as template and using a commercial kit (reverse transcription system, Qiagen, USA). As a result, cDNA was prepared from each group. […]

| Compound | UV-induced mRNA expression of MMP-9 [1] | VEGF-induced phosphorylation of VE-cadherin [2] | number of endothelial cells in G1 arrest phase [3] | expression and activity of MMP-2 (zymography) [4] | expression and activity of pro-MMP-2 (zymography) [4] | UV-induced expression of TNF-α (mRNA) in skin tissue [5] |
| --- | --- | --- | --- | --- | --- | --- |
| COc1cc(COC(=O)CCCC/C=C/C(C)C)ccc1O [capsiate] | decreased | decreased in a concentration-dependent manner | increase of the number of endothelial cells in G1 arrest phase | inhibited expression and activity | inhibited expression and activity | decrease |
| COc1cc(COC(=O)CCCCCCC(C)C)ccc1O [dihydrocapsiate] | – | decreased in a concentration-dependent manner | increase of the number of endothelial cells in G1 arrest phase | – | – | – |
